Reference: paper PMC10096391, “Discovery of N,4-Di(1H-pyrazol-4-yl)pyrimidin-2-amine-Derived CDK2 Inhibitors as Potential Anticancer Agents: Design, Synthesis, and Evaluation” (Molecules, 2023)

What was measured:
[1] = tested on: OVCAR5 cells; test: Cell cycle analysis by flow cytometry, OVCAR5; format: cell-based; settings: OVCAR5, 0.5 µM, 48 h
Experimental: (§1) The effect of the compounds on cell cycle distribution was evaluated following a previously reported method. Briefly, six-well plates (Sigma-Aldrich, NSW, Australia) were seeded with about 1–2 × 10^5 cells/well in 2 mL growth medium, incubated at 37 °C and 5% CO2 overnight, and treated with various concentrations of the test compounds and incubated for 48 h. The wells were collected by trypsinization, transferred into fluorescence-activating cell sorting (FACS) tubes, washed with 1 × phosphate-buffered saline (1 × PBS) twice, fixed in 70% (v/v) ice-cold ethanol for 15 min, and centrifuged at 300× g for 5 min. The cell pellets were then collected, stained with 200 µL of the cell cycle solution (comprising 50.0 μg/mL PI, 0.1 mg/mL RNase A, and 0.05% Triton X-100), and incubated for 1.5 h at room temperature in the dark. Finally, the DNA content was determined by a flow cytometer (CytoFLEX) and analyzed by CytExpert 2.1 software (Beckman Coulter, Brea, CA, USA).

[2] = tested on: OV90 cells; test: Colony formation (crystal violet), OV90; format: cell-based; settings: OV90, 10 days; 15 at 0.5 and 2 µM, CYC065 at 0.5 µM
Experimental: (§2) Briefly, ovarian cancer cells (i.e., A2780, OVCAR5, and OV90) seeded in six-well plates were adhered for 6 h and treated with 15. The medium that contained the compound was then changed every 72 h. Ten days after treatment, the cells were washed with PBS, fixed, and stained with crystal violet staining solution (0.05% crystal violet, 1% formaldehyde, 1% PBS, and 1% ethanol), and colonies were quantified using ImageJ software (National Institute of Health, Maryland, USA), with data presented as percentages of the control cells.

[3] = tested on: A2780 cells; test: Colony formation (crystal violet), A2780; format: cell-based; settings: A2780, 10 days; 15 at 0.5 and 2 µM, CYC065 at 0.5 µM
Experimental: as §2

[4] = tested on: A2780 cells; test: Cell cycle analysis by flow cytometry, A2780; format: cell-based; settings: A2780, 0.5 µM, 48 h
Experimental: as §1

[5] = tested on: A2780 cells; test: Annexin V/PI apoptosis assay, A2780; format: cell-based; settings: A2780, 0.5 µM, 48 h
Experimental: (§3) Annexin V-fluorescein isothiocyanate (FITC) apoptosis detection kit I (consisting of a ten-time stock solution of binding buffer, FITC–annexin V, and PI staining solution) was used to determine the effect of the compounds on cancer cell survival as previously reported. Briefly, six-well plates (Sigma-Aldrich, NSW, Australia) were seeded with about 1–2 × 10^5 cells/well in 2 mL growth medium, incubated at 37 °C and 5% CO2 overnight, treated with various concentrations of the test compounds, and incubated for 48 h. The wells were collected by trypsinization, transferred into FACS tubes, washed twice with 1 × PBS, and centrifuged at 300× g for 5 min. The pellets were then suspended in 100 µL of 1 × binding buffer and incubated in the dark with 3 µL of PI and 3 µL of FITC-conjugated annexin V solutions for 15 min. Finally, 200 µL of binding buffer was added to each sample and analyzed by the CytoFLEX cytometer. The extent of apoptotic cell death was quantified as the sum of the percentages of early apoptotic cells (annexin V-positive and PI-negative) and late apoptotic cells (both annexin–V- and PI-positive) and presented graphically as a contour diagram relative to the untreated control.

[6] = tested on: OVCAR5 cells; test: Annexin V/PI apoptosis assay, OVCAR5; format: cell-based; settings: OVCAR5, 0.5 µM, 48 h
Experimental: as §3

[7] = tested on: OVCAR5 cells; test: Colony formation (crystal violet), OVCAR5; format: cell-based; settings: OVCAR5, 10 days; 15 at 0.5 and 2 µM, CYC065 at 0.5 µM
Experimental: as §2

[8] = target: CDK1/cyclin B (CDK1B) (Homo sapiens, UniProt P06493); design: method as in PMID 36706608; settings: previously reported data for 1; cited from earlier work
CDK1/cyclin B (CDK1B), sequence (P06493 whole entry): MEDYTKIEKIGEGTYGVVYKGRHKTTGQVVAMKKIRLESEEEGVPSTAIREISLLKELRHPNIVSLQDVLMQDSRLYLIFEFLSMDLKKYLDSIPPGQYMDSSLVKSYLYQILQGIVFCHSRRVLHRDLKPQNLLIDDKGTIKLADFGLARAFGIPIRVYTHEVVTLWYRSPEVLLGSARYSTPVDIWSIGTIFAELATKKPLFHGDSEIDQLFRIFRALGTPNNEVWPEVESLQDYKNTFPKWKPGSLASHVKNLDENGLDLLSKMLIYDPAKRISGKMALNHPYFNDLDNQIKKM
CDK1/cyclin B (CDK1B), sequence (P14635 whole entry partner): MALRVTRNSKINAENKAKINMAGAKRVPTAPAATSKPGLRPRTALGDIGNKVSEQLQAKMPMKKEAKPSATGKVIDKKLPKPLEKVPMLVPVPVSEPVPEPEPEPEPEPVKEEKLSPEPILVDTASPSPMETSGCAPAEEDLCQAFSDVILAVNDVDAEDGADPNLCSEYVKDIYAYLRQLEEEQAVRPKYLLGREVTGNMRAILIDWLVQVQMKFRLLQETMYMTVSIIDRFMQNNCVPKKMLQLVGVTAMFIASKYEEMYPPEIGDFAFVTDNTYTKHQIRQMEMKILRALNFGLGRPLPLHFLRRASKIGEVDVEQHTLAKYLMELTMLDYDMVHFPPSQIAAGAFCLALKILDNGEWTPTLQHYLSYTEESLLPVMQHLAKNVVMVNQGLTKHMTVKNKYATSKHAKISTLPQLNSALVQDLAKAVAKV

[9] = target: CDK5/p25 (CDK5p25) (Homo sapiens, UniProt Q00535); design: method as in PMID 36706608; settings: previously reported data for 1; cited from earlier work
CDK5/p25 (CDK5p25), sequence (Q00535 whole entry): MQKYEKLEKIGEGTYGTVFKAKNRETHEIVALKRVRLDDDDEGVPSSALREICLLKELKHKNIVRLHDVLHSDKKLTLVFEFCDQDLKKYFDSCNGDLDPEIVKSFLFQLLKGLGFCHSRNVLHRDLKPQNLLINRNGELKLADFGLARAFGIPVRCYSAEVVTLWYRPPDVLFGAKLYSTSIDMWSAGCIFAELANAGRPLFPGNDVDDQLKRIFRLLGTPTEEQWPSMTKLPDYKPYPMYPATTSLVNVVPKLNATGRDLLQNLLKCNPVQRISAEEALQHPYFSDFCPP
CDK5/p25 (CDK5p25), sequence (Q15078 99-307 partner limits assumed): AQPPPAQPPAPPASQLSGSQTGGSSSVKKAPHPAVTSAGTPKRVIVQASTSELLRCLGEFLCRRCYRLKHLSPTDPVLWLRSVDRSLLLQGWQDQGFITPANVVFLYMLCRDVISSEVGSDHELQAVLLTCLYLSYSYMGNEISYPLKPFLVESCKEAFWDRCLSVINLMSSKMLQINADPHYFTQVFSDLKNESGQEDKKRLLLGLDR

[10] = target: CDK9/cyclin T1 (CDK9T1) (Homo sapiens, UniProt P50750); design: method as in PMID 36706608; settings: previously reported data for 1; cited from earlier work
CDK9/cyclin T1 (CDK9T1), sequence (P50750 whole entry): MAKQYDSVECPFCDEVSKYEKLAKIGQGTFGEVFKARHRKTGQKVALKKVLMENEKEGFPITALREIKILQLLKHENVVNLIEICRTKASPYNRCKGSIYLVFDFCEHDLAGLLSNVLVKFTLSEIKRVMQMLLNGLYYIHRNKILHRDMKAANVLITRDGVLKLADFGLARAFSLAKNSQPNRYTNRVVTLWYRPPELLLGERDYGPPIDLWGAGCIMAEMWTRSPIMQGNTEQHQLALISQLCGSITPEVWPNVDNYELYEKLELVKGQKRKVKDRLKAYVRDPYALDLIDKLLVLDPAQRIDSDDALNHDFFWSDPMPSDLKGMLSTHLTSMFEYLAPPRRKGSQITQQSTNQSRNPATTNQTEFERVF
CDK9/cyclin T1 (CDK9T1), sequence (O60563 whole entry partner): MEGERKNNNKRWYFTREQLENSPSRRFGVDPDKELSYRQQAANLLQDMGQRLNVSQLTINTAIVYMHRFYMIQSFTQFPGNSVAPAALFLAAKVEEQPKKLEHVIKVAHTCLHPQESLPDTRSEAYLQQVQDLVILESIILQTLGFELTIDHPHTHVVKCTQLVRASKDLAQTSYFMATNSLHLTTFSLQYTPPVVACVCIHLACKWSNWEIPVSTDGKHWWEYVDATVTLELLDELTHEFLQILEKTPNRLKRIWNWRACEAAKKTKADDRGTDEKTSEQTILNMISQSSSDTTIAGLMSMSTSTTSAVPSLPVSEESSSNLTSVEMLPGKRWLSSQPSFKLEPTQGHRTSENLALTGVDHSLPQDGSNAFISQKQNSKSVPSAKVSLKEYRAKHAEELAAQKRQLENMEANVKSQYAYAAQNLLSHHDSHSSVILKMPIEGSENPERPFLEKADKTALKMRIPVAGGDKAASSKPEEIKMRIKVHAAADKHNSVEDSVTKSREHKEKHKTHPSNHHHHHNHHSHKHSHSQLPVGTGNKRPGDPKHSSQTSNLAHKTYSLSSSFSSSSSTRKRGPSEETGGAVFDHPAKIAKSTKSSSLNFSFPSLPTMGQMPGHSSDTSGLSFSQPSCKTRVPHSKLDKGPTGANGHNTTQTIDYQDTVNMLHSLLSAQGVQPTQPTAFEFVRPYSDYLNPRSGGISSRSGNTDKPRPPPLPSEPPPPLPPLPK

[11] = target: CDK2/cyclin E (CDK2E) (Homo sapiens, UniProt P24941); design: method as in PMID 36706608; settings: previously reported data for 1; cited from earlier work
[12] = tested on: A2780 ovarian cancer cells; design: method as in PMID 36706608; settings: previously reported data for 1; cited from earlier work

| SMILES | increment in the subpopulation of G2/M cells compared to the vehicle control [1] | effect on colony formation [2] | effect on colony formation [3] | S-phase cells [4] | Sub-G1 cells [4] | apoptosis (annexin V positive, early + late) [5] | viability at 0.5 µM ([5]; Homo sapiens, read-out: Q1-LL, viable cells) | viability at 0.5 µM ([6]; Homo sapiens, OVCAR-5, read-out: Q1-LL, viable cells) | apoptosis (annexin V positive, early + late) [6] | effect on colony formation [7] | Ki [8] | Ki [9] | Ki [10] | Ki [11] | GI50 [12] |
| --- | --- | --- | --- | --- | --- | --- | --- | --- | --- | --- | --- | --- | --- | --- | --- |
| CC[C@H](Nc1nc(NCc2cnc(C)cc2C)c2ncn(C(C)C)c2n1)[C@@H](C)O [CYC065, reference compound] | 12% | reduced | reduced | 24% | 27% | 73% | 26% | 81.9% | 16% | lowest effect |  |  |  |  |  |
| Cn1cc(-c2nc(Nc3cccc(S(N)(=O)=O)c3)ncc2F)cn1 [Compound 1, 3-((5-fluoro-4-(1-methyl-1H-pyrazol-4-yl)pyrimidin-2-yl)amino)benzenesulfonamide] |  |  |  |  |  |  |  |  |  |  | 5 nM | 77 nM | 26 nM | 23 nM | 18 nM |
